Test results published in PubChem BioAssay (NCI).
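Dose response: 5 concentrations. Exposure: 48 h. Format: 96-well plates. Endpoint: linear interpolation; highest concentration if not reached. At the TGI there is no net growth.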

Tests used:
Assay in all cases: growth of human tumour cells (NCI), 48 h
CAKI-1 renal = system: CAKI-1 renal
CCRF-CEM leukemia = system: CCRF-CEM leukemia
HOP-62 NSCLC = system: HOP-62 NSCLC
M14 melanoma = system: M14 melanoma
MCF7 breast = system: MCF7 breast
MDA-MB-231 breast = system: MDA-MB-231 breast
NCI-H23 lung = system: NCI-H23 lung
NCI-H460 lung = system: NCI-H460 lung
NCI-H522 lung = system: NCI-H522 lung
OVCAR-3 ovarian = system: OVCAR-3 ovarian
OVCAR-5 ovarian = system: OVCAR-5 ovarian
PC-3 prostate = system: PC-3 prostate
RXF 393 renal = system: RXF 393 renal
SF-539 CNS = system: SF-539 CNS
SK-OV-3 ovarian = system: SK-OV-3 ovarian
T-47D breast = system: T-47D breast
TK-10 renal = system: TK-10 renal
UACC-257 melanoma = system: UACC-257 melanoma
HL-60(TB) leukemia = system: HL-60(TB) leukemia

SMILES | TGI (CAKI-1 renal) [µM] | TGI (CCRF-CEM leukemia) [µM] | TGI (HOP-62 NSCLC) [µM] | TGI (M14 melanoma) [µM] | TGI (MCF7 breast) [µM] | TGI (MDA-MB-231 breast) [µM] | TGI (NCI-H23 lung) [µM] | TGI (NCI-H460 lung) [µM] | TGI (NCI-H522 lung) [µM] | TGI (OVCAR-3 ovarian) [µM] | TGI (OVCAR-5 ovarian) [µM] | TGI (PC-3 prostate) [µM] | TGI (RXF 393 renal) [µM] | TGI (SF-539 CNS) [µM] | TGI (SK-OV-3 ovarian) [µM] | TGI (T-47D breast) [µM] | TGI (TK-10 renal) [µM] | TGI (UACC-257 melanoma) [µM] | TGI (HL-60(TB) leukemia) [µM]
CC(C)(C)OC(=O)NC(Cc1ccc(OC(C)(C)C)cc1)C(=O)N[C@H]1CCC[C@H]1C(=O)NC(Cc1ccccc1)C(=O)N1CCCC1C(N)=O (some centres undefined) | > 100 | > 100 | > 100 | > 100 | > 100 | > 100 | > 100 | > 100 | > 100 | > 100 | > 100 | > 100 | > 100 | > 100 | > 100 | > 100 | > 100 | > 100 | –
CC(C)N(C(=O)C1(O)c2ccccc2C=Cc2ccccc21)C(C)C | 57.7 | – | 35.6 | 40.1 | 31 | 29.3 | 34.2 | – | 25.3 | 31.3 | 27.9 | 28.9 | – | 33.4 | 53.9 | 37.1 | 31.9 | – | –
COC(=O)C1(C(=O)OC)C/C(C)=C(/C)SCCCS1 | > 100 | > 100 | > 100 | > 100 | > 100 | > 100 | > 100 | > 100 | > 100 | > 100 | > 100 | > 100 | > 100 | > 100 | > 100 | > 100 | > 100 | > 100 | –
Cc1cc(C)c(C(=O)c2nnc3ccccc3c2N)c(C)c1 | 75.9 | > 100 | 32.9 | 34 | – | 63.8 | > 100 | – | – | 36.6 | > 100 | 56.9 | – | – | > 100 | 56.6 | – | > 100 | 73.4
COC(=O)[C@]12CCC(C)(C)C[C@H]1[C@H]1C(=O)C=C3[C@@]4(C)C=C(C#N)C(=O)C(C)(C)[C@@H]4CC[C@@]3(C)[C@]1(C)CC2 | 0.078 | > 100 | 0.0547 | 0.0876 | – | 0.106 | 0.0392 | > 13.5 | > 100 | 0.0615 | 0.194 | 0.469 | > 100 | 0.103 | 1.1 | 0.159 | 0.152 | 0.0795 | 0.421
O=C(Oc1ccccc1)N1c2ccccc2[C@@]23O[C@]24CCC[C@H]3C#C/C=C\C#C[C@H]14 | 25.7 | > 100 | 25.6 | 30.6 | – | 24.8 | 28.7 | 11.4 | – | 26.1 | 24.1 | 23.8 | 21.8 | 45.8 | 17.1 | 22 | 47.8 | 28.7 | 26.1
CC(C)CC(NC(=O)C(CI)Cc1ccccc1)C(=O)Nc1ccccc1 (centres undefined) | > 100 | > 100 | – | > 100 | > 100 | > 100 | > 100 | > 100 | > 100 | > 100 | > 100 | > 100 | > 100 | > 100 | > 100 | – | > 100 | > 100 | > 100
COc1ccc2[nH]c3c(c2c1)CC(=S)N1CCCC(CC3=O)C1 (centres undefined) | > 100 | > 100 | > 100 | > 100 | > 100 | > 100 | > 100 | 92.6 | – | > 100 | > 100 | > 100 | 81 | – | > 100 | > 100 | > 100 | > 100 | –
COc1ccc(-n2cnn3c(=O)c4cn[nH]c4nc23)cc1 | – | > 10 | – | > 10 | > 10 | – | > 10 | > 10 | > 10 | > 10 | > 10 | > 10 | – | > 10 | > 10 | – | > 10 | > 10 | > 10
CC(O)CCCCC(O)CCC[C@H](O)[C@H]1CCC([C@H]2CCC([C@@H](O)CCCCCCCCCCCCC3=C[C@H](C)OC3=O)O2)O1 (some centres undefined) | 21.1 | 31.7 | 20.7 | 21.4 | 16.3 | 21.6 | 19.5 | 18.1 | 16.7 | 19.1 | 22 | 21.2 | 22.5 | 20.6 | 22.1 | – | 19.6 | 20.7 | 26.9
COc1ccc(-c2csc(Cc3nc4ccccc4c(=O)n3-c3ccc(Cl)cc3)n2)cc1 | > 100 | > 100 | > 100 | 65.1 | > 100 | > 100 | > 100 | > 100 | > 100 | > 100 | 62.1 | > 100 | > 100 | – | > 100 | – | > 100 | > 100 | > 100
O=c1oc2ccccc2cc1-c1cn2ccccc2n1 | 20.5 | > 22.5 | 14.8 | 28.9 | 30 | 18.5 | 29.6 | 13.4 | 17.3 | 14.3 | 46.7 | 12.8 | 13.8 | 10.6 | 15.6 | 34.6 | 20.5 | 14.3 | –
CC(=O)O[C@H]1CC[C@@]2(C)C(=CC[C@@H]3[C@@H]2CC[C@]2(C)NC(=O)/C(=C\c4ccccc4)C[C@@H]32)C1 | > 100 | 55.4 | 30.1 | 30.5 | 59.8 | 53 | 33.1 | 95.3 | 31.7 | 28.9 | 35 | 44.5 | 27.8 | 31.1 | 44.3 | 69.2 | 80.5 | 43.9 | –
COC(=O)c1c(C#N)[nH]c(-c2ccsc2)c1C(=O)OC | > 100 | > 100 | > 100 | > 100 | > 100 | > 100 | > 100 | – | > 100 | > 100 | > 100 | > 100 | > 100 | – | > 100 | > 100 | > 100 | > 100 | –
COc1ccc(OC)c(C(Cc2ccnc3ccccc23)Cc2ccnc3ccccc23)c1 | > 10 | > 10 | > 10 | > 10 | > 10 | > 10 | > 10 | > 10 | > 10 | > 10 | > 10 | > 10 | > 10 | > 10 | > 10 | > 10 | > 10 | > 10 | –
O=C(N[C@@H](c1ccccc1)[C@@H](O)C(=O)OCc1ccc([N+](=O)[O-])cc1)c1ccccc1 | > 100 | > 100 | > 100 | – | > 100 | > 100 | > 100 | > 100 | > 100 | > 100 | > 100 | > 100 | > 100 | > 100 | > 100 | > 100 | > 100 | > 100 | –
CC1(C)CC(=O)C(C=NC(=O)c2ccncc2)=C(O)C1 | > 100 | > 100 | > 100 | > 100 | > 100 | > 100 | > 100 | > 100 | > 100 | > 100 | > 100 | > 100 | > 100 | > 100 | > 100 | – | > 100 | > 100 | > 100
Cc1cn(C2CC(O)C(CO[Si](C)(C)C(C)(C)C)OC2OC(C)C)c(=O)[nH]c1=O (centres undefined) | > 100 | 61.1 | – | 92.5 | 58.3 | > 100 | > 100 | > 100 | 89 | 46.3 | > 100 | > 100 | 88.7 | 56.1 | – | > 100 | > 100 | > 100 | –
O=[N+]([O-])/C(C(Cl)=C(Cl)Cl)=C(/Nc1ccccc1)SCc1ccccc1 | 68.7 | 35.5 | 36.1 | 30.6 | – | 36.4 | 40.5 | 42.8 | 47.1 | 28.7 | 41.2 | 49.4 | 35.5 | 38.8 | > 100 | > 100 | 60.6 | 39.5 | 40.2
Oc1cc(O)cc(-c2nc3cc(F)ccc3s2)c1 | 53.8 | > 100 | – | 50.1 | 64.6 | 55.8 | 94.5 | 54 | 36.9 | 63.6 | 57.2 | 83.6 | 72.4 | 68.3 | 70.4 | 51.4 | 76.5 | 45.6 | –
c1ccc(NN=C(c2ccccn2)c2ccccn2)nc1 | > 100 | – | – | – | > 100 | > 100 | > 100 | > 100 | > 100 | > 100 | > 100 | > 100 | > 100 | > 47.5 | > 100 | – | > 100 | > 100 | –
O=C(O)c1nc2ccc(C(F)(F)F)cc2nc1NCc1ccc(F)cc1 | > 100 | > 100 | 46.1 | 61.7 | 68.8 | 81.4 | 79.8 | 63 | – | 33.2 | 42.5 | 82.6 | > 100 | 43.5 | 93 | > 100 | – | 76.2 | –
COC1=CC2C(c3cc4ccccc4n3S(=O)(=O)c3ccccc3)CC1CN2C(=O)OCc1ccccc1 (centres undefined) | > 100 | > 100 | > 100 | 51.2 | > 100 | 58.7 | > 100 | > 100 | 52.9 | > 100 | 45.2 | > 100 | 69.2 | – | 98.1 | – | > 100 | > 100 | 41.9
N#CC1=C(Nc2ccccc2)SC=C(c2ccccc2)NC1=NCc1ccccc1 | > 100 | – | > 100 | > 100 | > 100 | > 100 | > 100 | – | > 100 | > 100 | > 100 | > 100 | > 100 | > 100 | > 100 | > 100 | > 100 | – | –
CN(C)CCNC(=O)c1ccc2nc3c(nc2c1)C(=O)c1ccccc1-3 | > 100 | 39.3 | > 100 | > 100 | > 100 | – | > 100 | 38.6 | > 100 | > 100 | > 100 | > 100 | > 100 | > 100 | > 100 | – | > 100 | > 100 | 38.2
N#Cc1[nH]c(=S)[nH]c1N | > 100 | > 100 | > 100 | – | > 100 | – | > 100 | > 100 | > 100 | > 100 | > 100 | > 100 | > 100 | > 100 | > 100 | – | > 100 | > 100 | > 100
COc1ccc(NC(=O)N(C)CC2(O)CCC(C(C)(C)C)CC2)cc1 (centres undefined) | 10.3 | > 100 | > 100 | > 100 | > 100 | > 100 | > 100 | > 100 | > 100 | 81.4 | > 100 | > 100 | 92.9 | > 100 | > 100 | – | > 100 | > 100 | > 100
